What was measured:
[1] = tested on: Antibody column: 1,25-(OH)2-vitamin D3/D2 Immuno Tube Extraction Kit; test: Antibody column fractionation of pooled serum, LC-MS/MS of adsorbed and non-adsorbed fractions; type: binding; conditions: SRM chromatograms FIG. 5B/5C
Description: (4) Sample Pretreatment • (4-1) In a microtube, 200 μL of a calibrator or a pooled serum, 180 μL of IS, and 20 μL of additives were placed, and the whole was stirred to prepare a sample. To the calibrator, 10 μL of an aqueous 1α,25-(OH)2D3 solution (1 ng/mL) and 10 μL of an aqueous 1α,25-(OH)2D3-^13C3 solution (1 ng/mL) were added as the additives. To the pooled serum, 10 μL of an aqueous 1α,25-(OH)2D3-^13C3 solution (1 ng/mL) and 10 μL of water were added. • (4-2) The sample was loaded on an antibody column, and the column sealed with a cap was gently shaken. • (4-3) The sample was rotated and mixed at room temperature for 1 hour with a rotator to be subjected to antigen-antibody reaction. • (4-4) The outlet of the antibody column was released, and the column was centrifuged at 550 g for 2 minutes to collect a non-adsorbed fraction. • (4-5) Into the column, 500 μL of WASHSOL supplied with the antibody column kit was added, and the column was centrifuged at 550 g for 2 minutes. […]

[2] = tested on: Antibody column: 1,25-(OH)2-vitamin D3/D2 Immuno Tube Extraction Kit; test: Separation measurement of 4β,25-(OH)2D3: antibody column fractionation of spiked vitamin D free serum, LC-MS/MS of fractions; type: binding; conditions: vitamin D free serum with 4β,25-(OH)2D3 at 50 pg/mL; SRM chromatograms FIG. 4A/4B
Excerpt: • Standard: 4β,25-(OH)2D3 (vitamin D compound 54 produced in Example 1) • Stable isotope-labeled compound: 4β,25-(OH)2D3-d4 (vitamin D compound 52 produced in Example 1) • Vitamin D free serum: MSG1000 (Golden West Biologicals) • Antibody column: 1,25-(OH)2-vitamin D3/D2 Immuno Tube (trademark) Extraction Kit (Immunodiagnostik) • SLE column: Isolute SLE+ column (Biotage) • Derivatization reagent (DAP-PA): JeoQuant Kit for LC-MS/MS Analysis of Vitamin D Metabolites (JEOL) (2) IS (Internal Standard) Solution
An aqueous 4β,25-(OH)2D3-d4 solution was prepared at the concentration shown below.
(3) Sample Pretreatment • (3-1) In a microtube, 200 μL of a vitamin D free serum prepared to have a 4β,25-(OH)2D3 concentration of 50 pg/mL and 30 μL of IS were placed to prepare a sample. • (3-2) The sample was loaded on an antibody column, and the column sealed with a cap was gently shaken. • (3-3) The sample was rotated and mixed at room temperature for 1 hour with a rotator to be subjected to antigen-antibody reaction. • (3-4) The outlet of the antibody column was released, and the column was centrifuged at 550 g for 2 minutes to collect a non-adsorbed fraction. • (3-5) Into the column, 500 μL of WASHSOL supplied with the antibody column kit was added, and the column was centrifuged at 550 g for 2 minutes. […]

C=C1/C(=C\C=C2/CCC[C@]3(C)[C@@H]([C@H](C)CCCC(C)(C)O)CC[C@@H]23)C[C@@H](O)C[C@@H]1O [1α,25(OH)2D3, 1α,25-dihydroxyvitamin D3]
Fraction of the antibody column in which the compound was collected [1]: collected in the adsorbed fraction

C=C1CC[C@H](O)[C@H](O)/C1=C/C=C1\CCC[C@]2(C)[C@@H]([C@H](C)CCCC(C)(C)O)CC[C@@H]12 [4β,25-(OH)2D3, 4β,25-dihydroxyvitamin D3]
Fraction of the antibody column that contains the compound [2]: only in the non-adsorbed fraction
Fraction of the antibody column in which the compound was collected [1]: collected in the non-adsorbed fraction

— US12630505B2, “Alkyne compound, vitamin D compound, analytical method, and production method” (Tokyo University of Agriculture and Technology, priority 2021, dated 2026)
